{"source": "patent US20170189418A1", "about": "“PHARMACEUTICAL COMPOSITION FOR TREATING LUNG CANCER” (MA SHEN KAI RUEI CO., LTD., priority 2015, published 2017)", "type_in_all_cases": "cell-based", "conditions_in_all_cases": "isolated compound", "key": {"A549 cells": {"test_system": "A549 cells", "test": "MTT survival assay, human lung cancer cell line A549", "procedure": "(§1) The Anctin K(AnK) and dehydroeburicoic acid (DeHBA) separately isolated from the Extraction A of Example 1 were added into the culture media of human lung-cancer cells, A549, CH27 or H460, to test for tumor cell survival by using anti-cancer drug screen model. This survival assay was carried out with the widely known MTT (3-[4,5-dimethylthiazol-2-yl]2,5-diphenyltetrazolium bromide) assay.\n(§2) Lung cancer cell lines, A549 cells are adenocarcinomic human alveolar basal epithelial cells. A549 cell line are widely used as an in vitro model for a type II pulmonary epithelial cell model for drug metabolism and as a transfection host, while CH27 is human lung squamous carcinoma cell and H460 is human lung non-small cell carcinoma cell. The human lung-cancer cells, A549, CH27 and H460 were cultivated in media containing fetal calf serum for 10 hours. The proliferated cells were washed once with PBS, then treated with 1× trypsin-EDTA and centrifuged at 2000 rpm for 10 minutes. The supernatant was discarded and the cell pellet was re-suspended in […] of fresh culture medium by gently shaking. The cells were placed in a 96-well plate.\n(§3) Subsequently, the plates were read on an ELISA reader to determine the survival rates. The half maximal inhibitory concentration (IC50) values were calculated and results of ex vivo survival assay were thus obtained.\n(§4) By using the same manner as the method described above, respectively human lung cancer cell line A549, CH27 and H460 was cultured. After then, the pharmaceutical compositions A-F of the present invention was applied separately, and then MTT assay for each sample was measured to assess the inhibition effectiveness of various cancer cell activity while using pharmaceutical compositions A-F of the present invention."}, "CH27 cells": {"test_system": "CH27 cells", "test": "MTT survival assay, human lung cancer cell line CH27", "procedure": "as §1, §2, §3, §4"}, "H460 cells": {"test_system": "H460 cells", "test": "MTT survival assay, human lung cancer cell line H460", "procedure": "as §1, §2, §3, §4"}}, "data": [{"smiles": "C=C(CC[C@@H](C)[C@H]1CC[C@H]2C3=C(C(=O)C[C@]12C)[C@@]1(C)CC[C@@H](O)[C@](C)(O)C1C[C@@H]3O)C(C)C(=O)O", "note": "(stereo partly drawn) [Anctin K]", "values": [{"measurement": "half-maximal inhibitory concentration (IC50)", "setting": "A549 cells", "value": "relatively low"}, {"measurement": "survival rate of lung cancer cell", "setting": "A549 cells", "value": "decreasing the survival rate"}, {"measurement": "half-maximal inhibitory concentration (IC50)", "setting": "CH27 cells", "value": "relatively low"}, {"measurement": "survival rate of lung cancer cell", "setting": "CH27 cells", "value": "decreasing the survival rate"}, {"measurement": "half-maximal inhibitory concentration (IC50)", "setting": "H460 cells", "value": "relatively low"}, {"measurement": "survival rate of lung cancer cell", "setting": "H460 cells", "value": "decreasing the survival rate"}]}, {"smiles": "C=C(CC[C@@H](C(=O)O)[C@H]1CC[C@@]2(C)C3=CC[C@H]4C(C)(C)[C@@H](O)CC[C@]4(C)C3=CC[C@]12C)C(C)C", "note": "[dehydroeburicoic acid]", "values": [{"measurement": "half-maximal inhibitory concentration (IC50)", "setting": "A549 cells", "value": "relatively low"}, {"measurement": "survival rate of lung cancer cell", "setting": "A549 cells", "value": "decreasing the survival rate"}, {"measurement": "half-maximal inhibitory concentration (IC50)", "setting": "CH27 cells", "value": "relatively low"}, {"measurement": "survival rate of lung cancer cell", "setting": "CH27 cells", "value": "decreasing the survival rate"}, {"measurement": "half-maximal inhibitory concentration (IC50)", "setting": "H460 cells", "value": "relatively low"}, {"measurement": "survival rate of lung cancer cell", "setting": "H460 cells", "value": "decreasing the survival rate"}]}]}
